{"source": "patent US20060035291A1", "about": "“Method of detecting cellular immunity and application thereof to drugs” (priority 2001, published 2006)", "key": {"cancer patients": {"system": "cancer patients", "assay": "Skin test for immediate and delayed type hypersensitivity in cancer patients", "experimental": "For the skin test, 10 μg of 5 kinds of peptides was subcutaneously administered to each patient. Saline was used as the negative control. 20 minutes and 24 hours after injection, immediate and delayed type hypersensitivity (DHT) reactions were looked for. The skin test reaction was determined as positive if erythema and sclerosis were more than 10 mm in diameter. If the immediate hypersensitivity reaction was negative, a peptide was administered. Each peptide solution (3 mg/ml) was mixed with the same amount of IFA (Montanide ISA-51) and emulsified in a 5-mI plastic syringe, and 3 ml of the emulsion was subcutaneously administered to the lateral femoral region every two weeks. Serum PSA level was measured 4 weeks after vaccination. The time passed was defined as the time from the registration day to the date when the progress of the target disease was recorded. For patients who chose to discontinue the study without any progress of the target disease (e.g., increase in PSA) it was determined that the disease had progressed at the time the study was stopped.\nWhen an immediate hypersensitivity reaction positive in the skin test of one of these peptides, that peptide was vaccinated if the fifth peptide of criteria A, B, or Z was negative in the skin test. […] In Table 14, o signifies vaccine peptides given to each patient.\nVaccine was administered to HLA-A24 positive patients with progressive cancer as following. CypB91 was given to lung cancer patients, ART475 to ovarian cancer patients, and SART3109 to colorectal cancer patients. None of the patients received any steroids or other immunosuppressants from 4 weeks before the beginning of this study to the end of the study. When the skin test was negative, 1 ml of peptide solution (1 mg/ml) was emulsified with the same amount of Freund's incomplete adjuvant (Montanide ISA-51) and injected subcutaneously. In this embodiment, all patients were vaccinated at least three times every two weeks, and up to seventeen times, depending on the patient's wishes."}, "[1]": {"system": "HLA-A24 restricted antigen peptide-specific T cells (CTL precursors) in PBMCs", "format": "cell-based, human", "settings": "for IFN-γ production 1st well / IFN-γ production 2nd well / IFN-γ production 3rd well / change in reactivity of PBMCs to the vaccinated peptide after vaccination: HLA-A24 positive cervical cancer patient; for CTL precursor induction assay, response level per well: quadricate assay; for change in reactivity of PBMCs to the vaccinated peptide after vaccination: before vs after 3rd and 6th dose"}, "healthy donors [2]": {"system": "healthy donors", "assay": "Allergic skin reaction (type I allergy) skin test in healthy donors"}, "healthy donors [3]": {"system": "healthy donors", "settings": "in vivo"}, "[4]": {"settings": "colorectal cancer patient 4, after the 3rd vaccination"}, "[5]": {"settings": "after more than 5 doses of cancer vaccine"}, "[6]": {"settings": "before vaccination, response to HIV-C1R-A24 cells subtracted"}, "[7]": {"settings": "HRPC Pt. 1, pre-vaccinated PBMCs"}, "[8]": {"settings": "HRPC Pt. 3, pre-vaccinated PBMCs"}, "[9]": {"settings": "HLA-A24 positive cervical cancer patient PBMCs"}}, "note": "Like-named read-outs stand apart in the source and are kept apart here. Where no end group is shown, it is not given here."}
{"sequence": "TFDYLRSVL [lck486]", "values": [{"measurement": "peptide-specific DTH reaction", "setting": "cancer patients; [4]", "value": "exhibited DTH reaction"}, {"measurement": "IFN-γ production 1st well", "setting": "[1]; [5]", "value": 2, "unit": "pg/well"}, {"measurement": "IFN-γ production 2nd well", "setting": "[1]; [5]", "value": 24, "unit": "pg/well"}, {"measurement": "IFN-γ production 3rd well", "setting": "[1]; [5]", "value": "<0", "unit": "pg/well"}, {"measurement": "IFN-γ production 1st well", "setting": "[1]; [6]", "value": "<0", "unit": "pg/well"}, {"measurement": "IFN-γ production 2nd well", "setting": "[1]; [6]", "value": "<0", "unit": "pg/well"}, {"measurement": "IFN-γ production 3rd well", "setting": "[1]; [6]", "value": 31, "unit": "pg/well"}, {"measurement": "CTL precursor induction assay, response level per well", "setting": "[1]; [7]", "value": "E (E: 0.1<p≦0.2 and 100≦net)"}, {"measurement": "CTL precursor induction assay, response level per well", "setting": "[1]; HRPC Pt. 2, pre-vaccinated PBMCs", "value": "^b(⊚B)"}, {"measurement": "CTL precursor induction assay, response level per well", "setting": "[1]; [8]", "value": "(D)"}, {"measurement": "CTL precursor induction assay, response level per well", "setting": "[1]; HRPC Pt. 8, pre-vaccinated PBMCs", "value": "⊚A"}]}
{"sequence": "KFHRVIPKF", "values": [{"measurement": "Allergic skin reaction, area of flare", "setting": "healthy donors [2]; healthy donor HD1", "value": 600, "unit": "mm × mm"}, {"measurement": "Allergic skin reaction, area of flare", "setting": "healthy donors [2]; healthy donor HD2", "value": 750, "unit": "mm × mm"}, {"measurement": "Allergic skin reaction, area of flare", "setting": "healthy donors [2]; healthy donor HD3", "value": 1225, "unit": "mm × mm"}, {"measurement": "Allergic skin reaction, area of flare", "setting": "healthy donors [2]; healthy donor HD6", "value": 500, "unit": "mm × mm"}, {"measurement": "Allergic skin reaction, area of flare", "setting": "healthy donors [2]; healthy donor HD10", "value": 625, "unit": "mm × mm"}]}
{"sequence": "PFHRVIPDF", "values": [{"measurement": "Allergic skin reaction, area of flare", "setting": "healthy donors [2]; healthy donor HD1", "value": 525, "unit": "mm × mm"}, {"measurement": "Allergic skin reaction, area of flare", "setting": "healthy donors [2]; healthy donor HD2", "value": 2000, "unit": "mm × mm"}, {"measurement": "Allergic skin reaction, area of flare", "setting": "healthy donors [2]; healthy donor HD3", "value": 1400, "unit": "mm × mm"}, {"measurement": "Allergic skin reaction, area of flare", "setting": "healthy donors [2]; healthy donor HD6", "value": 700, "unit": "mm × mm"}, {"measurement": "Allergic skin reaction, area of flare", "setting": "healthy donors [2]; healthy donor HD10", "value": 270, "unit": "mm × mm"}]}
{"sequence": "HYTNASDGL [lck208]", "values": [{"measurement": "peptide-specific DTH reaction", "setting": "cancer patients; colorectal cancer patient 1", "value": "observed after the 6th vaccination"}, {"measurement": "peptide-specific DTH reaction", "setting": "cancer patients; [4]", "value": "exhibited DTH reaction"}, {"measurement": "frequency of detection in the primary screening (patients)", "setting": "[1]", "value": "3/10"}, {"measurement": "IFN-γ production After 3rd dose of vaccine", "setting": "[1]; [9]", "value": 676, "unit": "pg/mL"}, {"measurement": "IFN-γ production After 6th dose of vaccine", "setting": "[1]; [9]", "value": 745, "unit": "pg/mL"}, {"measurement": "IFN-γ production Pre-Vaccination", "setting": "[1]; [9]", "value": 602, "unit": "pg/mL"}, {"measurement": "IFN-γ production 1st well", "setting": "[1]; [5]", "value": 41, "unit": "pg/well"}, {"measurement": "IFN-γ production 2nd well", "setting": "[1]; [5]", "value": 1473, "unit": "pg/well"}, {"measurement": "IFN-γ production 1st well", "setting": "[1]; [6]", "value": "<0", "unit": "pg/well"}, {"measurement": "IFN-γ production 2nd well", "setting": "[1]; [6]", "value": "<0", "unit": "pg/well"}, {"measurement": "IFN-γ production 3rd well", "setting": "[1]; [6]", "value": 76, "unit": "pg/well"}, {"measurement": "change in reactivity of PBMCs to the vaccinated peptide after vaccination", "setting": "[1]", "value": "increase in reactivity"}, {"measurement": "CTL precursor induction assay, response level per well", "setting": "[1]; [7]", "value": "E^′"}, {"measurement": "CTL precursor induction assay, response level per well", "setting": "[1]; [8]", "value": "⊚AD"}, {"measurement": "CTL precursor induction assay, response level per well", "setting": "[1]; HRPC Pt. 6, pre-vaccinated PBMCs", "value": "⊚ArAAC"}, {"measurement": "CTL precursor induction assay, response level per well", "setting": "[1]; HRPC Pt. 9, pre-vaccinated PBMCs", "value": "⊚AD"}, {"measurement": "positive well frequency after vaccination", "setting": "[1]; colorectal cancer patient 1", "value": "increase in positive well frequency"}, {"measurement": "positive well frequency after vaccination", "setting": "[1]; colorectal cancer patient 2", "value": "increase in positive well frequency"}]}
{"sequence": "HFHRVIPDF", "values": [{"measurement": "Allergic skin reaction, area of flare", "setting": "healthy donors [2]; healthy donor HD1", "value": 375, "unit": "mm × mm"}, {"measurement": "Allergic skin reaction, area of flare", "setting": "healthy donors [2]; healthy donor HD2", "value": 1225, "unit": "mm × mm"}, {"measurement": "Allergic skin reaction, area of flare", "setting": "healthy donors [2]; healthy donor HD3", "value": 750, "unit": "mm × mm"}, {"measurement": "Allergic skin reaction, area of flare", "setting": "healthy donors [2]; healthy donor HD6", "value": 900, "unit": "mm × mm"}, {"measurement": "Allergic skin reaction, area of flare", "setting": "healthy donors [2]; healthy donor HD10", "value": 156, "unit": "mm × mm"}]}
{"sequence": "TFHRVIKDF", "values": [{"measurement": "Allergic skin reaction, area of flare", "setting": "healthy donors [2]; healthy donor HD1", "value": 540, "unit": "mm × mm"}, {"measurement": "Allergic skin reaction, area of flare", "setting": "healthy donors [2]; healthy donor HD2", "value": 1400, "unit": "mm × mm"}, {"measurement": "Allergic skin reaction, area of flare", "setting": "healthy donors [2]; healthy donor HD3", "value": 750, "unit": "mm × mm"}, {"measurement": "Allergic skin reaction, area of flare", "setting": "healthy donors [2]; healthy donor HD6", "value": 450, "unit": "mm × mm"}, {"measurement": "Allergic skin reaction, area of flare", "setting": "healthy donors [2]; healthy donor HD10", "value": 300, "unit": "mm × mm"}]}
{"sequence": "DYPSLSATDI [ART475]", "values": [{"measurement": "IFN-γ production 1st well", "setting": "[1]; [5]", "value": 9, "unit": "pg/well"}, {"measurement": "IFN-γ production 2nd well", "setting": "[1]; [5]", "value": 2, "unit": "pg/well"}, {"measurement": "IFN-γ production 3rd well", "setting": "[1]; [5]", "value": 60, "unit": "pg/well"}, {"measurement": "change in reactivity of PBMCs to the vaccinated peptide after vaccination", "setting": "[1]", "value": "increase in reactivity"}, {"measurement": "CTL precursor induction assay, response level per well", "setting": "[1]; [8]", "value": "⊚AE"}, {"measurement": "CTL precursor induction assay, response level per well", "setting": "[1]; HRPC Pt. 4, pre-vaccinated PBMCs", "value": "⊚B"}, {"measurement": "rate of skin reaction occurrence (donors)", "setting": "healthy donors [3]", "value": "no such response"}]}
{"sequence": "KFHRVIKDF [CypB84]", "values": [{"measurement": "patients with immediate hypersensitivity reaction in pre-vaccination skin test", "setting": "cancer patients; vaccinated patients with lung cancer, Phase I clinical trial", "value": "8 of 10"}, {"measurement": "rate of skin reaction occurrence", "setting": "healthy donors [3]", "value": 95, "unit": "%"}, {"measurement": "rate of skin reaction occurrence (donors)", "setting": "healthy donors [3]", "value": "39/41"}]}
{"sequence": "SFHRVIKDF", "values": [{"measurement": "skin reaction compared with human CypB84", "setting": "healthy donors [2]; 5 healthy donors", "value": "weaker skin reaction"}, {"measurement": "Allergic skin reaction, area of flare", "setting": "healthy donors [2]; healthy donor HD1", "value": 0, "unit": "mm × mm"}, {"measurement": "Allergic skin reaction, area of flare", "setting": "healthy donors [2]; healthy donor HD2", "value": 400, "unit": "mm × mm"}, {"measurement": "Allergic skin reaction, area of flare", "setting": "healthy donors [2]; healthy donor HD3", "value": 225, "unit": "mm × mm"}, {"measurement": "Allergic skin reaction, area of flare", "setting": "healthy donors [2]; healthy donor HD6", "value": 255, "unit": "mm × mm"}, {"measurement": "Allergic skin reaction, area of flare", "setting": "healthy donors [2]; healthy donor HD10", "value": 100, "unit": "mm × mm"}]}
{"sequence": "EYCLKFTKL [ART1170]", "values": [{"measurement": "immediate hypersensitivity reaction in skin test", "setting": "cancer patients; 10 colorectal cancer patients, before vaccination", "value": "positive in all patients"}]}
{"sequence": "NFHRVIKDF", "values": [{"measurement": "Allergic skin reaction, area of flare", "setting": "healthy donors [2]; healthy donor HD1", "value": 360, "unit": "mm × mm"}, {"measurement": "Allergic skin reaction, area of flare", "setting": "healthy donors [2]; healthy donor HD2", "value": 1400, "unit": "mm × mm"}, {"measurement": "Allergic skin reaction, area of flare", "setting": "healthy donors [2]; healthy donor HD3", "value": 600, "unit": "mm × mm"}, {"measurement": "Allergic skin reaction, area of flare", "setting": "healthy donors [2]; healthy donor HD6", "value": 1350, "unit": "mm × mm"}, {"measurement": "Allergic skin reaction, area of flare", "setting": "healthy donors [2]; healthy donor HD10", "value": 300, "unit": "mm × mm"}]}
{"sequence": "DYLRSVLEDF [lck488]", "values": [{"measurement": "peptide-specific DTH reaction", "setting": "cancer patients; colorectal cancer patient 1", "value": "observed after the 6th vaccination"}, {"measurement": "peptide-specific DTH reaction", "setting": "cancer patients; [4]", "value": "exhibited DTH reaction"}, {"measurement": "IFN-γ production 1st well", "setting": "[1]; [5]", "value": 25, "unit": "pg/well"}, {"measurement": "IFN-γ production 2nd well", "setting": "[1]; [5]", "value": 99, "unit": "pg/well"}, {"measurement": "IFN-γ production 1st well", "setting": "[1]; [6]", "value": "<0", "unit": "pg/well"}, {"measurement": "IFN-γ production 2nd well", "setting": "[1]; [6]", "value": "<0", "unit": "pg/well"}, {"measurement": "IFN-γ production 3rd well", "setting": "[1]; [6]", "value": 25, "unit": "pg/well"}]}
